Entries after “also recorded” stand apart in the source; their conditions may differ. Like-named read-outs stand apart in the source and are kept apart here.
Assays:
histidine decarboxylase = molecular target: T1, histidine decarboxylase (Homo sapiens, UniProt P19113); assay: Inhibition of histidine decarboxylase (formation of histamine-2-14C); format: biochemical; settings: for inhibiting action against histidine decarboxylase: in words; for IC50: read-out: concentration for 50% inhibition ratio of histidine decarboxylase (converted)
T1 sequence (P19113 1-662): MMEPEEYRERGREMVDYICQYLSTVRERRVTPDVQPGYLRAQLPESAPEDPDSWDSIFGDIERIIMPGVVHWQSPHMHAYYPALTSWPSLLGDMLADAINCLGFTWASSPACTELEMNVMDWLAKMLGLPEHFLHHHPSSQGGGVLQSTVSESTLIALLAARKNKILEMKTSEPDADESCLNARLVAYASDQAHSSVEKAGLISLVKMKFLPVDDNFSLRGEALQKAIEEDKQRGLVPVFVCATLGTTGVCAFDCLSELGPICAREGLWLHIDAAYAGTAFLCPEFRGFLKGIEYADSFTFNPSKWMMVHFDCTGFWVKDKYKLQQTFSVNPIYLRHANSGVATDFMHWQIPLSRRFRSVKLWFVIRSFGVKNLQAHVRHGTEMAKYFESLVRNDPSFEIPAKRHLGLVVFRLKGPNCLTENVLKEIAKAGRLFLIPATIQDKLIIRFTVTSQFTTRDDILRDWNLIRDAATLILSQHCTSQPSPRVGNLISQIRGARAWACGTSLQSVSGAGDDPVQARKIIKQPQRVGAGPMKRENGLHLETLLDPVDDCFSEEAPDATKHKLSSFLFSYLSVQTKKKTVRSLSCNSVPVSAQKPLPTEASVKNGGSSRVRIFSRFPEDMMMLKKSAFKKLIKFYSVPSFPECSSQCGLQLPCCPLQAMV
Description: This inhibition is measured in the following manner:
The reaction liquid is prepared from 2.5 × 10^-^4 mole of L-histidine-2-^14 C (1.0 × 10^5 cpm), 3.7 × 10^-^5 mole of pyridoxal phosphate, 0.1 cc of histidine decarboxylase (protein content, 1 mg/cc), 0.1 cc of 0.67 mole phosphate buffer solution (pH 6.8) and sample solution. To this mixture there is added distilled water until 1 cc total volume of reaction liquid is obtained. The thusly prepared reaction liquid is then allowed to react for 2 hours at 37° C. and the formed histamine-2-^14 C is adsorbed on ammonia type "Amberlite CG-50". After washing the "Amberlite CG-50" with water, the adsorbed histamine is eluted with 1 N aqueous ammonia and a quantity of elute is sampled to measure its radioactivity by use of a liquid scintillation counter. The thusly measured radioactivity tells the quantity of formed histamine, so that the inhibition against histidine decarboxylase can be determined.

bacteria = assay: Inhibiting action against growth of bacteria; format: cell-based; settings: at 100 .nu./cc
tyrosine hydroxylase = assay: Inhibition of tyrosine hydroxylase; format: biochemical; settings: at 100 .nu./cc
DOPA decarboxylase = molecular target: T2, DOPA decarboxylase (Homo sapiens, UniProt P20711); assay: Inhibition of DOPA decarboxylase (method of Davis and Awapara); format: biochemical; settings: for inhibiting action against DOPA decarboxylase: in words; for IC50: read-out: concentration for 50% inhibition of DOPA decarboxylase (converted)
T2 sequence (P20711 1-480): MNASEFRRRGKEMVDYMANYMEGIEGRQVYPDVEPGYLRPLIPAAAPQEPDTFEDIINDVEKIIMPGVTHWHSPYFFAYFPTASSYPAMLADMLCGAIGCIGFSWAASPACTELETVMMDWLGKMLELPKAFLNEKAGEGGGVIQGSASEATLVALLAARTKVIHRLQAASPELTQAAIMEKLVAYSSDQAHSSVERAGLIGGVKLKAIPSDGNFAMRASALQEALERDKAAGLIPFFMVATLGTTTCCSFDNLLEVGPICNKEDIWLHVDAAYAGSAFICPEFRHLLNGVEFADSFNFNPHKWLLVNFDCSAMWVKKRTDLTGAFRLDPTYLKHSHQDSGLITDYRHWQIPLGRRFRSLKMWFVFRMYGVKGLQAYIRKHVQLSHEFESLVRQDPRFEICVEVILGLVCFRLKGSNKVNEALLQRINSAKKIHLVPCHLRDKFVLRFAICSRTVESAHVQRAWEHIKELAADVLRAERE
Text: It has been reported heretofore that an inhibitor against COMT delays the metabolism or rate of destruction of adrenaline, noradrenaline, etc. in the human body and, therefore, serves to prolong and promote their blood pressure elevating action. These inhibitors may also be used as curative or palliative medicines for diseases such as depression which is considered to be caused when catechol amines present in the human body are reduced in quantity. There has been much argument about etiological causes of schizophrenia. One hypothesis says that the schizophrenia is caused by the production of abnormally methylated bioamines (methylated catechol amines and serotonin) within the brain. Especially, hallucination of schizophrenia is said to be caused by abnormally methylated catechol amines (Ref. "Amines and Schizophrenia" by H. E. Himwich, S. S. Kety and J. R. Smythies, 1967, Pergamon Press, Oxford). The inhibitors of COMT may therefore be used as curative medicines for schizophrenia and for the associated hallucination. On the other hand, the anti-hemochlasis of isoflavones has been reported by Murata and Ikehata ("Agr. Biol. Chem." Vol. 32, No. 6, 1968, pp. 740-746) and the cholesterol deposition preventing action of isoflavones has been reported by G. W. Moersch, D. F. Morrow and W. A. Neuklis ("J. Med. Chem." 10(2), 1967, pp. 154-158). […] It will therefore be possible to use the compounds (I), (II) and (III) as curative medicines for diseases such as hypertension and arteriosclerosis and also as economizers in combination with DOPA for treating Parkinson's disease. […] This means that there is a possibility to use the compounds (I) and (II) as curative medicines for inflammation and allergy in man.

dopamin-β-hydroxylase = molecular target: T3, dopamin-β-hydroxylase (Bos taurus, UniProt P15101); assay: Inhibition of dopamin-β-hydroxylase; format: biochemical; settings: at 100 .nu./cc
T3 sequence (P15101 1-610): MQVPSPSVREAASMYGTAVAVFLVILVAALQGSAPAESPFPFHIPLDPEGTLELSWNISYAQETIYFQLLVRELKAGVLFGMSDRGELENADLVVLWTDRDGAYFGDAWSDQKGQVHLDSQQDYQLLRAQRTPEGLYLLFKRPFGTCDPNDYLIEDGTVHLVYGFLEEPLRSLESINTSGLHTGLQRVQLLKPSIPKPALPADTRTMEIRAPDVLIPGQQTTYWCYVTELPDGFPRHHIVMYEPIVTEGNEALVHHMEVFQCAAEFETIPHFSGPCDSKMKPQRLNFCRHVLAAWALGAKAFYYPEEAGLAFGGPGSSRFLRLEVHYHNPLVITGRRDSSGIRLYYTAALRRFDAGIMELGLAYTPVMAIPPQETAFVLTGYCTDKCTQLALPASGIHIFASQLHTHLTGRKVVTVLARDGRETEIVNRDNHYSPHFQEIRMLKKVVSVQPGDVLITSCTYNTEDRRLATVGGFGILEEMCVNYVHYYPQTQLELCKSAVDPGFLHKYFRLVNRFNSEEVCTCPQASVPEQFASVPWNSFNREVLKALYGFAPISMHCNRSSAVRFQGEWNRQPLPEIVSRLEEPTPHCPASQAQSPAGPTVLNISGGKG

## COc1ccc(-c2coc3cc(O)c(OC)c(O)c3c2=O)cc1O [Compound (I), 3',5,7-trihydroxy-4',6-dimethoxy-isoflavone]
Histidine decarboxylase
  inhibiting action against histidine decarboxylase: inhibit; also recorded: inhibiting action
  IC50: 18.2 µM
Histidine decarboxylase; printed in parentheses
  IC50: 18 µM
bacteria
  inhibiting action against the growth of bacteria: no inhibiting action
Tyrosine hydroxylase
  inhibiting action against tyrosine hydroxylase: no inhibiting action
DOPA decarboxylase
  inhibiting action against DOPA decarboxylase: powerful inhibiting action
  IC50: 37.8 µM
dopamin-β-hydroxylase
  inhibiting action against dopamin-β-hydroxylase: no inhibiting action

## COc1ccc(-c2coc3c(OC)c(O)cc(O)c3c2=O)cc1O [Compound (II), 3',5,7-trihydroxy-4',8-dimethoxy-isoflavone]
Histidine decarboxylase
  inhibiting action against histidine decarboxylase: inhibit; also recorded: inhibiting action
  IC50: 4.54 µM
Histidine decarboxylase; printed in parentheses
  IC50: 4.5 µM
bacteria
  inhibiting action against the growth of bacteria: no inhibiting action
Tyrosine hydroxylase
  inhibiting action against tyrosine hydroxylase: no inhibiting action
DOPA decarboxylase
  inhibiting action against DOPA decarboxylase: powerful inhibiting action
  IC50: 15.1 µM
dopamin-β-hydroxylase
  inhibiting action against dopamin-β-hydroxylase: no inhibiting action

## COc1ccc(-c2coc3c(OC)c(O)c(OC)cc3c2=O)cc1O [Compound (III), 3',7-dihydroxy-4',6,8-trimethoxy-isoflavone]
Histidine decarboxylase; 2 h, at 100 .nu./cc, read-out: inhibition ratio against histidine decarboxylase
  inhibition at 100 µg/mL: ~31.9%
Histidine decarboxylase
  inhibiting action against histidine decarboxylase: inhibiting action
bacteria
  inhibiting action against the growth of bacteria: no inhibiting action
Tyrosine hydroxylase
  inhibiting action against tyrosine hydroxylase: no inhibiting action
DOPA decarboxylase; at a concentration as high as 100 .nu./cc
  inhibition of DOPA decarboxylase: no inhibition
DOPA decarboxylase
  inhibiting action against DOPA decarboxylase: no inhibiting action
dopamin-β-hydroxylase
  inhibiting action against dopamin-β-hydroxylase: no inhibiting action

Source: patent US3974184A, “Microbial production of certain isoflavones” (Zaidan Hojin Biseibutsu Kagaku Kenkyu Kai, priority 1973, dated 1976)
